Test results published in patent US20240352429A1, “AGENT FOR INDUCING VIRAL VECTOR PRODUCTION” (priority 2021, published 2024).

Key:
[1] = test system: suspension HEK293 cells (FreeStyle 293F cell); assay type: cell-based; conditions: for titer of adeno-associated virus vector in the cell-derived sample, various cell growth inhibitors A: nocodazole 500 nM, benzimidazoles 50 μM, 5 μM, 500 nM, vinblastine sulfate, colcemid, taxanes 5 μM, 100 nM, FIG. 3 to 7
virus-like particles = conditions: known from Non Patent Literature 1; cited from earlier work
suspension HEK293 cells [2] = test: Titer of adeno-associated virus vector (AAV2) produced with a bioreactor (400 mL culture medium), quantitative PCR; assay type: cell-based; conditions: nocodazole final 500 nM in DMSO, added 4 hours after introduction of the nucleic acid; vs w/o; FIG. 9
Method: On the day of introduction of a nucleic acid into the cells, the suspension HEK293 cells were seeded in a bioreactor (animal cell culture apparatus BCP, volume 1 L, ABLE Corporation), with the number of cells being adjusted to 1×10^6 cells/mL (in an amount of culture medium of 400 mL).
pRC2-mi342 (1 μg/μL, 240 μL, packaging plasmid DNA), pAAV-Venus (1 μg/μL, 80 μL, vector plasmid DNA), pHelper (1 μg/μL, 160 μL, helper plasmid DNA), and PEI MAX (1 μg/μL, 960 μL, Polysciences Inc.) as polyethylenimine (PEI) were mixed and left to stand in Opti-MEM (Thermo Fisher Scientific K.K.) for production of a double-stranded circular plasmid DNA-PEI mixed solution.
Nucleic acids were introduced into the cells by adding the double-stranded circular plasmid DNA-PEI mixed solution to the cell culture medium. Thereafter, AAV2 was produced by culturing at 37° C. in the presence of 8% CO2 for 4 days.
Four days after introduction of the nucleic acid into the cells, the supernatant and the cells were separated, PEG8000 (Sigma-Aldrich Co. LLC) was added to the supernatant obtained, and the adeno-associated virus vector was concentrated. Triton X-100 (Sigma-Aldrich Co. LLC) was added to the residual for cell lysis, and thereafter KANEKA Endonuclease (KANEKA CORPORATION) was added for degradation of DNA. […]
Quantification of the adeno-associated virus was performed by the same method as in Example 1.

suspension HEK293 cells [3] = test: Titer of adeno-associated virus vector (AAV2) by quantitative PCR after introducing linear covalently closed DNA (LCC DNA) with PEI; assay type: cell-based; conditions: for titer of adeno-associated virus vector from the cell-derived sample, LCC DNA: DMSO as solubilizer, nocodazole 500 nM added 1 minute after introduction, oxibendazole 50 μM, 5 μM, 500 nM, 50 nM, FIG. 11
Method: On the day of introduction of the nucleic acid into the cells, the suspension HEK293 cells were seeded in a 50-mL centrifuge tube equipped with a filter cap, with the number of cells being adjusted to 1×10^6 cells/mL (an amount of culture medium of 5 mL).
In the condition where a linear covalently closed DNA was used as the nucleic acid to be introduced into the cells, RC2_LCC_DNA (1 μg/μL, 4 μL, packaging plasmid DNA), Venus_LCC_DNA (1 μg/μL, 1 μL, vector plasmid DNA), Helper_LCC_DNA (1 μg/μL, 1 μL, helper plasmid DNA), and PEI MAX (1 μg/μL, 12 μL, Polysciences Inc.) as polyethylenimine (PEI) were mixed and left to stand in Opti-MEM (Thermo Fisher Scientific K.K.) for production of a LCC DNA-PEI mixed solution. Nucleic acids were introduced into the cells by adding the LCC DNA-PEI mixed solution to the cell culture medium. Thereafter, AAV2 was produced by culturing at 37° C. in the presence of 8% CO2 for 4 days.
Extraction and quantification of the adeno-associated virus vector were carried out by the same methods as in Example 1.
When the cell growth inhibitor A was oxibendazole (Tokyo Chemical Industry Co., Ltd.), DMSO was used as a solubilizer, and oxibendazole was added to the cell culture medium so that the final concentrations of oxibendazole were four kinds of concentrations, i.e., 50 μM, 5 μM, 500 nM, and 50 nM.

[4] = added 4 hours after introduction of the nucleic acid, DMSO as solubilizer

CCCSc1ccc2nc(NC(=O)OC)[nH]c2c1 [albendazole]
titer of adeno-associated virus vector in the cell-derived sample, various cell growth inhibitors A [1, 4]: improved

CC(=O)O[C@@]12CO[C@@H]1C[C@H](O)[C@@]1(C)C(=O)[C@H](O)C3=C(C)[C@@H](OC(=O)[C@H](O)[C@@H](NC(=O)OC(C)(C)C)c4ccccc4)C[C@@](O)([C@@H](OC(=O)c4ccccc4)[C@H]21)C3(C)C [docetaxel]
titer of adeno-associated virus vector in the cell-derived sample, various cell growth inhibitors A [1, 4]: improved

COC(=O)Nc1nc2ccc(Sc3ccccc3)cc2[nH]1 [fenbendazole]
titer of adeno-associated virus vector in the cell-derived sample, various cell growth inhibitors A [1, 4]: improved

COC(=O)Nc1nc2ccc(C(=O)c3cccs3)cc2[nH]1 [nocodazole]
productivity of virus-like particles (virus-like particles): reduces
titer of adeno-associated virus vector in the cell-derived sample, various cell growth inhibitors A [1, 4]: improved
total titer of adeno-associated virus vector (cell-derived sample and supernatant-derived sample) ([1]; final concentration from 250 nM to 2 μM, DMSO as solubilizer, added 4 hours after introduction of the nucleic acid, 4 days culture, vs 0 nM (DMSO only), FIG. 1): improved
effect of improving the titer of adeno-associated virus vector (cell-derived sample) compared with sodium valproate ([1]; nocodazole 500 nM in DMSO vs sodium valproate (VPA) 1, 2.5, 5, 10 or 12.5 mM in water, FIG. 8): larger
increase of the titer of adeno-associated virus vector (cell-derived sample), double-stranded circular plasmid DNA ([1]; nocodazole 500 nM in DMSO, added 1 minute after introduction of the nucleic acid, pDNA, vs w/o, FIG. 10): eightfold
titer of adeno-associated virus vector in the cell-derived sample, influence of timing of addition ([1]; nocodazole final 500 nM in DMSO, added between 24 hours before and 4 hours after introduction of the nucleic acid, vs DMSO only, FIG. 2): improved
total titer of adeno-associated virus vector (cell-derived and supernatant-derived sample) at bioreactor scale (suspension HEK293 cells [2]): reproduced
titer of adeno-associated virus vector from the cell-derived sample, LCC DNA (suspension HEK293 cells [3]): increased
increase of the titer of adeno-associated virus vector (cell-derived sample), linear covalently closed DNA (suspension HEK293 cells [3]; nocodazole 500 nM in DMSO, added 1 minute after introduction of the nucleic acid, vs w/o, FIG. 10): fourteenfold

CCCOc1ccc2nc(NC(=O)OC)[nH]c2c1 [oxibendazole]
titer of adeno-associated virus vector from the cell-derived sample, LCC DNA (suspension HEK293 cells [3]): increased

CC(=O)O[C@H]1C(=O)[C@@]2(C)[C@H]([C@H](OC(=O)c3ccccc3)[C@]3(O)C[C@H](OC(=O)[C@H](O)[C@@H](NC(=O)c4ccccc4)c4ccccc4)C(C)=C1C3(C)C)[C@]1(OC(C)=O)CO[C@@H]1C[C@@H]2O [paclitaxel]
titer of adeno-associated virus vector in the cell-derived sample, various cell growth inhibitors A [1, 4]: improved

CC[C@]1(O)C[C@@H]2CN(CCc3c([nH]c4ccccc34)[C@@](C(=O)OC)(c3cc4c(cc3OC)N(C)[C@H]3[C@@](O)(C(=O)OC)[C@H](OC(C)=O)[C@]5(CC)C=CCN6CC[C@]43[C@@H]65)C2)C1 [vinblastine]
titer of adeno-associated virus vector in the cell-derived sample, various cell growth inhibitors A [1, 4]: improved
